Consider ten compounds from PubChem BioAssay (NCI).

Among the test systems are HCC-2998 colon; HOP-62 NSCLC; MOLT-4 leukemia; OVCAR-4 ovarian; SF-268 CNS; SK-MEL-5 melanoma; SW-620 colon; U251 CNS; CAKI-1 renal; UACC-257 melanoma.
What all share (test): NCI tumour cell line growth inhibition, 48 h

Each structure is given as a SMILES string. Several values for one entry are separate records, joined by “and”; a condition that tells them apart may be missing. Identical values can stand only once.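 1) Cells in 96-well plates. 2) Compound, 48 h, 5 concentrations. 3) Linear interpolation between surrounding doses. 4) Unreached endpoint = highest concentration. At the GI50, growth is halved. TGI denotes the concentration required for complete inhibition of growth.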

As to `N#Cc1cc(C#N)c(Cl)nc1N`, the TGI with HCC-2998 colon, with HOP-62 NSCLC, in the assay on MOLT-4 leukemia, in the assay with OVCAR-4 ovarian, in the assay on SF-268 CNS and with SK-MEL-5 melanoma was above 10 µM each time. Moreover, the TGI in the assay on SW-620 colon and in the assay on U251 CNS was above 10 µM each time.

With `COC(=O)Cc1cc(OC)c(OC)cc1Br`, the TGI in the assay with CAKI-1 renal, with HCC-2998 colon, in the assay on HOP-62 NSCLC, with MOLT-4 leukemia, in the assay on OVCAR-4 ovarian and in the assay on SF-268 CNS was above 100 µM in each case. Besides, the TGI in the assay with SW-620 colon, with U251 CNS and with UACC-257 melanoma was above 100 µM in each case.

As to `CN1CCc2cc3c(cc2C1O)OCO3` (stereo not drawn), the GI50 in the assay on CAKI-1 renal is 14.8 µM and > 100 µM; in the assay on HCC-2998 colon, 18.8 µM and > 100 µM; with HOP-62 NSCLC it was 18 µM and > 100 µM; in the assay on MOLT-4 leukemia, 23.4 µM and > 100 µM; in the assay on SW-620 colon it was 16.6 µM and > 100 µM. The TGI was 30.6 µM and > 100 µM with CAKI-1 renal; 36.9 µM and > 100 µM with HCC-2998 colon; 36.2 µM and > 100 µM in the assay with HOP-62 NSCLC; 81.6 µM and > 100 µM with MOLT-4 leukemia; 13.7 µM and > 100 µM with OVCAR-4 ovarian; 30.8 µM and > 100 µM in the assay on SF-268 CNS. Also, the TGI in the assay on SW-620 colon was 33.8 µM and > 100 µM; with U251 CNS it was 22.9 µM and > 100 µM; in the assay on UACC-257 melanoma it was 10.8 µM and > 100 µM.

As to `CCOc1ccc(NC(=O)CC2SC(=Nc3ccc(Cl)cc3)NC2=O)cc1` (stereo not drawn), the TGI in the assay on CAKI-1 renal was 48.8 µM; in the assay with HCC-2998 colon, above 100 µM; with HOP-62 NSCLC, above 100 µM; in the assay on MOLT-4 leukemia, above 100 µM; in the assay with OVCAR-4 ovarian, above 100 µM; in the assay on SF-268 CNS, above 100 µM. In addition, the TGI in the assay with SK-MEL-5 melanoma, with SW-620 colon and with UACC-257 melanoma was above 100 µM throughout.

For `N#Cc1cccc(N2C(=O)c3c(c(-c4ccccc4)c(-c4ccc(Sc5ccc(-c6c(-c7ccccc7)c7c(c(-c8ccccc8)c6-c6ccccc6)C(=O)N(c6cccc(C#N)c6)C7=O)cc5)cc4)c(-c4ccccc4)c3-c3ccccc3)C2=O)c1`, the TGI in the assay on HCC-2998 colon, in the assay on HOP-62 NSCLC, in the assay with MOLT-4 leukemia, with OVCAR-4 ovarian, with SF-268 CNS and with SK-MEL-5 melanoma was above 100 µM each time. Moreover, the values for the TGI in the assay with SW-620 colon, in the assay on U251 CNS and in the assay on UACC-257 melanoma were above 100 µM, 54.2 µM and above 100 µM, respectively.

`CN(C)c1ccc2c(c1)C(=O)N(OS(=O)(=O)c1ccc([N+](=O)[O-])cc1)C2=O`: the TGI in the assay on CAKI-1 renal was 54.2 µM; with HCC-2998 colon it was 60.3 µM; with HOP-62 NSCLC it was above 100 µM; with OVCAR-4 ovarian, 31.5 µM; in the assay on SF-268 CNS, 80.8 µM; in the assay with SK-MEL-5 melanoma it was above 100 µM. The TGI amounted to 46.8 µM with SW-620 colon, 35.1 µM with U251 CNS and 58.8 µM with UACC-257 melanoma.

In the case of `CC1=CC2CC(C)=C(CC[C@]3(C)CC[C@H]([C@@H](C)C(=O)O)OO3)C(C)(C)C2CC1` (stereo partly drawn), the TGI with CAKI-1 renal was 2.76 µM; with HCC-2998 colon, 0.818 µM; in the assay on HOP-62 NSCLC, 3.41 µM; with OVCAR-4 ovarian it was 0.971 µM; in the assay with SF-268 CNS, 3.24 µM; in the assay on SK-MEL-5 melanoma, 2.52 µM. In addition, the values for the TGI with SW-620 colon, in the assay with U251 CNS and with UACC-257 melanoma were 0.354 µM, 1.01 µM and 3.03 µM, respectively.

As to `CCC1(C)NN=c2s/c(=C/c3ccc(OC)cc3)c(=O)n2N1` (stereo not drawn), the TGI in the assay with CAKI-1 renal, in the assay on HCC-2998 colon, with HOP-62 NSCLC, in the assay with MOLT-4 leukemia, with OVCAR-4 ovarian and in the assay on SF-268 CNS was above 100 µM in each case. Also, the TGI with SK-MEL-5 melanoma, with SW-620 colon and in the assay with U251 CNS was above 100 µM throughout.

In the case of `CC(C)=CCN=C(N)N`, the TGI in the assay with CAKI-1 renal, in the assay with HCC-2998 colon, in the assay on MOLT-4 leukemia, in the assay on OVCAR-4 ovarian, in the assay with SF-268 CNS and with SK-MEL-5 melanoma was above 100 µM each time. Moreover, the TGI with SW-620 colon, with U251 CNS and in the assay on UACC-257 melanoma was above 100 µM in each case.

Regarding `CC[P+](C)(Cc1ccccc1)c1ccccc1` (stereo not drawn), the TGI in the assay with HCC-2998 colon, with HOP-62 NSCLC, in the assay with MOLT-4 leukemia, in the assay on OVCAR-4 ovarian, in the assay on SK-MEL-5 melanoma and in the assay on SW-620 colon was above 100 µM each time. Besides, the TGI in the assay with U251 CNS and with UACC-257 melanoma was above 100 µM each time.
